Test: Solubility of Compound A in mediums with various pHs
Assay type: physicochemical
Conditions: mediums with various pHs including water (Fig. 4)
Description: Thus, as shown in Fig. 5 in the results of the dissolution test of the tablets prepared by a conventional means employed for formulation of preparations, such as mixing Compound A with lactose, corn starch, etc. for granulation, adding talc, magnesium stearate, etc. and compressing same, the dissolution property is not entirely satisfactory, reflecting the properties of the compound per se.
Fig. 1 is a graph showing the results of the dissolution test of the fine granules of Reference Example 1 and Example 1 in the 1st fluid and the 2nd fluid, Fig. 2 is a graph showing the results of the dissolution test of the tablets of Reference Example 2 and Example 2 in the 1st fluid and the 2nd fluid, Fig. 3 is a graph showing the results of the dissolution test of the fine granules of Reference Example 1 and Example 3 in the 1st fluid and the 2nd fluid, Fig. 4 is a graph showing the solubilities of Compound A in mediums with various pHs, and Fig. 5 is a graph showing the results of the dissolution test of the tablets prepared by the conventional formulation methods in the 1st fluid and the 2nd fluid.

solubility: slightly soluble
Structure (SMILES): O=c1cc2c(nn1-c1ccc(Cl)cc1)-c1ccccc1[S+]([O-])CC2 (stereo not shown) [Compound A, 2-(4-chlorophenyl)-5,6-dihydro-(1)benzothiepino[5,4-c]pyridazine-3(2H)-one 7-oxide]
